Reference: patent publication US8501936B2 (priority 2009, dated 2013)

Legend:
[1] = target: human JAK2 (Homo sapiens (Human), UniProt O60674); details: read-out: JAK2 IC50
[2] = target: human FAK (Homo sapiens (Human), UniProt Q05397); details: read-out: FAK IC50
Sequence of human FAK (Q05397 whole entry): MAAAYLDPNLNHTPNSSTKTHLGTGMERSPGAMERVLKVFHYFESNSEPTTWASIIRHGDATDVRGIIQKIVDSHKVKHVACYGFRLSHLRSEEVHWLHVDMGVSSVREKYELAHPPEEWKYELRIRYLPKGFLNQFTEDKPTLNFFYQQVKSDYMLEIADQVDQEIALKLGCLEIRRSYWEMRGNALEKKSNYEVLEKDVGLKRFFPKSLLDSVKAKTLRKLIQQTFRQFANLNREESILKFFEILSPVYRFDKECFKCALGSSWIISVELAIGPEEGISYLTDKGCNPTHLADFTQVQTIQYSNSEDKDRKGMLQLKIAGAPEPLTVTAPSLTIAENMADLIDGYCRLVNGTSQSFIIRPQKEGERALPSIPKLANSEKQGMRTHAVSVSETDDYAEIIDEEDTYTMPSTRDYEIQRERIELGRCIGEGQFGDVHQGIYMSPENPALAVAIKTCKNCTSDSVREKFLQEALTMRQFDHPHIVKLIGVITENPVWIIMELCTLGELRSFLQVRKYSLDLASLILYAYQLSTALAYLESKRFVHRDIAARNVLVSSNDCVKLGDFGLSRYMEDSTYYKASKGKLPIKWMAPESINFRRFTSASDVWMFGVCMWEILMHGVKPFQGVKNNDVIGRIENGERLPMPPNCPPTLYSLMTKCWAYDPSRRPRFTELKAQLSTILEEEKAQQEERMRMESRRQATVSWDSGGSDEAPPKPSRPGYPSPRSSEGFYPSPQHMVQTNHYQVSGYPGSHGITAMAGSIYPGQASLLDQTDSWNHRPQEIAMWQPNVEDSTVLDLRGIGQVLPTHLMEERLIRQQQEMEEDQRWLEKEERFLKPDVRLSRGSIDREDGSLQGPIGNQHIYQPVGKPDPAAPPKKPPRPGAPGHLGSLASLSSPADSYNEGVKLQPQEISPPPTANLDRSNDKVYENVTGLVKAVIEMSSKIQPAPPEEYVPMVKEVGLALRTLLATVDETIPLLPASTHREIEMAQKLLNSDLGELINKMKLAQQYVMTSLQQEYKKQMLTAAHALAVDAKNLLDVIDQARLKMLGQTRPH

Sequence of human JAK2 (O60674 815-1132): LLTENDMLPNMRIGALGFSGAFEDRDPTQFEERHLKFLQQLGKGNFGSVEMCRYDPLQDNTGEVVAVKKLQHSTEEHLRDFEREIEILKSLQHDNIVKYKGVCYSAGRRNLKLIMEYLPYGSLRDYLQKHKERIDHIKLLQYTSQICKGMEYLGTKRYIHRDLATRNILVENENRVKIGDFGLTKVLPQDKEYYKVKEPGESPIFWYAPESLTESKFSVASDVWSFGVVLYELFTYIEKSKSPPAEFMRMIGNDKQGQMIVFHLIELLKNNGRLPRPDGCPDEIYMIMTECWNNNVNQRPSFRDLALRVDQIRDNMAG

| Structure (SMILES) | IC50 [1] | IC50 [2] |
| --- | --- | --- |
| CS(=O)(=O)c1ccc(-c2cccn3nc(Nc4ccc(N5CCOCC5)cc4)nc23)cc1 [Example 4, [8-(4-Methanesulfonyl-phenyl)-[1,2,4]triazolo[1,5-a]pyridin-2-yl]-(4-morpholin-4-yl-phenyl)-amine] | 0.9 nM | 461 nM |
| c1cncc(-c2cccn3nc(Nc4ccc(N5CCOCC5)cc4)nc23)c1 [Example 6, (4-Morpholin-4-yl-phenyl)-(8-pyridin-3-yl-[1,2,4]triazolo[1,5-a]pyridin-2-yl)-amine] | 25.9 nM | 3000 nM |
| COc1ccc(-c2cccn3nc(Nc4ccc(N5CCOCC5)cc4)nc23)cn1 [Example 8, [8-(6-Methoxy-pyridin-3-yl)-[1,2,4]triazolo[1,5-a]pyridin-2-yl]-(4-morpholin-4-yl-phenyl)-amine] | 13.4 nM | 1480 nM |
| CS(=O)(=O)c1ccc(-c2cccn3nc(Nc4ccc(OCCN5CCCC5)cc4)nc23)cc1 [Example 10, [8-(4-Methanesulfonyl-phenyl)-[1,2,4]triazolo[1,5-a]pyridin-2-yl]-[4-(2-pyrrolidin-1-yl-ethoxy)-phenyl]-amine] | 1 nM | 206 nM |
| c1cc(-c2ccncc2)c2nc(Nc3ccc(N4CCOCC4)cc3)nn2c1 [Example 11, (4-Morpholin-4-yl-phenyl)-(8-pyridin-4-yl-[1,2,4]triazolo[1,5-a]pyridin-2-yl)-amine] | 5.5 nM | 6500 nM |
| CS(=O)(=O)c1ccc(-c2cccc3nc(Nc4ccc(N5CCOCC5)cc4)nn23)cc1 [Example 12, [5-(4-Methanesulfonyl-phenyl)-[1,2,4]triazolo[1,5-a]pyridin-2-yl]-(4-morpholin-4-yl-phenyl)-amine] | 0.7 nM | 434 nM |
| CS(=O)(=O)c1cccc(-c2cccn3nc(Nc4ccc(OCCN5CCCC5)cc4)nc23)c1 [Example 13, [8-(3-Methanesulfonyl-phenyl)-[1,2,4]triazolo[1,5-a]pyridin-2-yl]-[4-(2-pyrrolidin-1-yl-ethoxy)-phenyl]-amine] | 3 nM | 524 nM |
| CS(=O)(=O)c1ccc(-c2cccn3nc(Nc4ccc(OCCN5CCOCC5)cc4)nc23)cc1 [Example 26, [8-(4-Methanesulfonyl-phenyl)-[1,2,4]triazolo[1,5-a]pyridin-2-yl]-[4-(2-morpholin-4-yl-ethoxy)-phenyl]-amine] | 1.3 nM | 585 nM |
| CS(=O)(=O)c1ccc(-c2cccn3nc(Nc4cccc(N5CCOCC5)c4)nc23)cc1 [Example 27, [8-(4-Methanesulfonyl-phenyl)-[1,2,4]triazolo[1,5-a]pyridin-2-yl]-(3-morpholin-4-yl-phenyl)-amine] | 0.4 nM | 2020 nM |
| CS(=O)(=O)c1cccc(-c2cccn3nc(Nc4cccc(N5CCOCC5)c4)nc23)c1 [Example 29, [8-(3-Methanesulfonyl-phenyl)-[1,2,4]triazolo[1,5-a]pyridin-2-yl]-(3-morpholin-4-yl-phenyl)-amine] | 5.6 nM | 1350 nM |
| CN1CCN(c2ccc(Nc3nc4c(-c5ccc(S(C)(=O)=O)cc5)cccn4n3)cc2)CC1 [Example 32, [8-(4-Methanesulfonyl-phenyl)-[1,2,4]triazolo[1,5-a]pyridin-2-yl]-[4-(4-methyl-piperazin-1-yl)-phenyl]-amine] | 2.4 nM | 410 nM |
| CN1CCN(c2cccc(Nc3nc4c(-c5ccc(S(C)(=O)=O)cc5)cccn4n3)c2)CC1 [Example 35, [8-(4-Methanesulfonyl-phenyl)-[1,2,4]triazolo[1,5-a]pyridin-2-yl]-[3-(4-methyl-piperazin-1-yl)-phenyl]-amine] | 1.3 nM | 1060 nM |
| COc1ccc(Nc2nc3c(Nc4ccc(S(C)(=O)=O)cc4)cccn3n2)cc1 [Example 38, N(8)-(4-Methanesulfonyl-phenyl)-N(2)-(4-methoxy-phenyl)-[1,2,4]triazolo[1,5-a]pyridine-2,8-diamine] | 470 nM | 10000 nM |
